Assay results reported in patent US11534506B2, “Methods for cell labeling and medical imaging” (priority 2015, dated 2022).
Entries after “also recorded” stand apart in the source; their conditions may differ. Read-outs that look alike come from different tables or passages of the source.

Key:
[1] = system: C6 glioma cells; conditions: cited from earlier work
[2] = system: myeloma cells and natural killer cells; conditions: cited from earlier work
[3] = system: 5T33 myeloma cells; conditions: cited from earlier work
[4] = system: macrophages, breast cancer cells, and myeloma cells; conditions: at 24 hours; cited from earlier work
[5] = system: natural killer cells; conditions: cited from earlier work
[6] = system: lymphocytes; conditions: cited from earlier work
[7] = system: Leukocytes, Lymphocytes, HPCs; conditions: in 30 minutes; cited from earlier work
[8] = system: hematopoietic progenitor cells (HPCs); conditions: in 24-96 hours; cited from earlier work
[9] = system: mMCs, hMSCs and mDCs; experiment: ApoTox-Glo viability/cytotoxicity and caspase 3/7 apoptosis assay; type: cell-based, mouse, human; conditions: 2 μM for 16 hours
Method: The effect of radiolabeling on cellular viability was also assessed using the ApoTox-Glo viability, cytotoxicity and caspase 3/7 apoptosis assay (Promega Corporation, Madison, Wis., USA). Unlabeled cells served as control. A known number of unlabeled and ^89Zr-labeled cells (˜10^4/well) were plated in a 96-well culture plate. The culture medium was replaced daily and maintained at 37° C. in a CO2 incubator. At day 7, cell viability, cytotoxicity and apoptosis was quantified in triplicate using the ApoTox-Glo assay. As positive controls, cells were incubated with 30 μg/mL digitonin for 30 minutes for the viability and cytotoxicity assays, while 2 μM staurosporine was added for 16 hours for the caspase 3/7 dependent apoptosis assay.

[10] = system: mMCs, hMSCs and mDCs; experiment: Incorporation of ^89Zr-DBN in protein fraction (subcellular protein fractionation); type: cell-based, mouse, human; conditions: days 1, 4 and 7 after labeling; all cell types studied
Method: To understand the sub-cellular localization of the label, incorporation of ^89Zr-DBN into different protein fractions in mMCs, hMSCs and mDCs was evaluated using a subcellular protein fractionation kit (Piercenet Thermo Scientific) at day 1, 4 and 7 post-labeling. The cytosolic proteins, hydrophobic membrane proteins, nuclear proteins and cytoskeletal proteins were isolated and each protein fraction was counted for radioactivity using a 2480 Wizard^2 automatic gamma counter (Perkin Elmer, Waltham, Mass., USA).

[11] = system: mMCs, hMSCs and mDCs; experiment: Labeling of cells with ^89Zr(HPO4)2 and ^89Zr-DBN, labeling efficiency over all cell types; type: cell-based, mouse, human
Method: The adherent cells were trypsinized and washed once with PBS and twice with HEPES buffered GIBCO Hanks Balanced Salt solution buffered (ThermoFisher, Atlanta, Ga., USA) (H-HBSS), pH 7.5. The cell labeling reaction was performed with ˜6×10^6 cells in 500 μl H-HBSS at pH 7.5. […] After incubation, the cells were washed 4 times with appropriate volume of complete medium. The final labeling efficiency was calculated from the radioactivity bound to cells after all the washes.

[12] = system: mMCs, hMSCs and mDCs; experiment: Efflux of ^89Zr-DBN from labeled cells; conditions: over 7 days post-labeling, medium replaced daily
Method: The medium was replaced with fresh medium daily for 7 days and radioactivity in the replaced medium was counted. For mDCs with mix of adherent and suspension cells, the plate was centrifuged at 1000 rpm for 10 minutes before replacing the medium to avoid loss of unattached ^89Zr-labeled cells.

[13] = system: scAAV1-Cre and AAV2-GFP; experiment: Labeling of adeno-associated viruses with ^89Zr-DBN; conditions: after 30 minutes of labeling
Method: Post-labeling, the ^89Zr-DBN-AAVs were purified from free label and reaction mixture using size exclusion PD-10 desalting columns. The eluted virus in fractions were quantified using protein assay and radioactivity elution pattern was recorded.

[14] = system: human mesenchymal stem cells (hMSCs); experiment: Labeling of cells with ^89Zr-DBN (cell-bound radioactivity); type: cell-based; conditions: 6×10^6 cells incubated 30 minutes with ~6 MBq
Method: (§1) B16-F10 Mouse melanoma cells (mMCs) from ATCC, Manassas, Va., USA, human mesenchymal stem cells (hMSCs) from patients and JAWSII mouse dendritic cells (mDCs) from ATCC, Manassas, Va., USA, were used for evaluating the ^89Zr-DBN based labeling method. The mMCs and hMSCs were cultured in complete DMEM (DMEM+10% FBS) and mDCs were cultured in complete alphaMEM (alpha MEM+4 mM L-glutamine+1 mM sodium pyruvate+5 ng/mL murine GM-CSF+20% FBS). The cultures were maintained in a humidified cell culture chamber (21% O2, 74% N2, 5% CO2) at 37° C.
(§2) The adherent cells were trypsinized and washed once with PBS and twice with HEPES buffered GIBCO Hanks Balanced Salt solution buffered (ThermoFisher, Atlanta, Ga., USA) (H-HBSS), pH 7.5. The cell labeling reaction was performed with ˜6×10^6 cells in 500 μl H-HBSS at pH 7.5. […]. After incubation, the cells were washed 4 times with appropriate volume of complete medium. The final labeling efficiency was calculated from the radioactivity bound to cells after all the washes.

[15] = system: JAWSII mouse dendritic cells (mDCs); experiment: as above; type: cell-based; conditions: 6×10^6 cells incubated 30 minutes with ~6 MBq
Method: as §1, §2

[16] = system: B16-F10 Mouse melanoma cells (mMCs); experiment: as above; type: cell-based; conditions: 6×10^6 cells incubated 30 minutes with ~6 MBq
Method: as §1, §2

In the case of `CNC(=S)NN=CC(C)=NNC(=S)NC.[64Cu]` [^64Cu-PTSM, ^64Cu-pyruvaldehyde-bis(N4-methylthiosemicarbazone)], the “extent of efflux (as high as)” value ([1]; C6 glioma cells, in 24-96 hours) is given as 70-80%, the cell labeling yield ([1]; in 5 hours) is given as 70-85% cell labeling yield in and the effluxed radioactivity ([1]; in 24 hours) is given as “cells (~80% effluxed in 24”.

In the case of `c1cnc2c([O][89Zr]([O]c3cccc4cccnc34)([O]c3cccc4cccnc34)[O]c3cccc4cccnc34)cccc2c1` [^89Zr-oxine], the cell labeling yield ([2]; in 30 minutes) is listed as ~32% cell labeling yield in 30, the “cell viability after labeling” value ([2]; possibly due to oxine exposure) is listed as “Loss of cell viability possibly” and the “viability of labeled cells” value ([3]; in first 24 hours) is listed as 76.3±3.2%. For the same compound, the “viability of labeled cells, initial” value ([3]; starting value before the decline) was 93%, the efflux [4] was 10-29% and the “viability of radiolabeled cells” value ([5]; after 6 days) was 20-30%. For the same compound, the “viability of radiolabeled cells” value ([5]; over the first 24 hours) was 60-100%.

For `[In+3].[O-]c1cccc2cccnc12.[O-]c1cccc2cccnc12.[O-]c1cccc2cccnc12` [^111In-oxine], the “extent of efflux (as high as)” value ([6]; in 24-96 hours) is listed as 70-80%, the effluxed radioactivity ([6]; in 24 hours) is listed as “(~70% effluxed in 24 hours)” and the cell labeling yield [7] is listed as ~80% cell labeling yield in 30. For the same compound, the “extent of efflux (as high as)” value [8] was 70-80%.

For `CN[C@@H]1C[C@H]2O[C@@](C)([C@@H]1OC)n1c3ccccc3c3c4c(c5c6ccccc6n2c5c31)C(=O)NC4` [staurosporine], the “apoptosis (caspase 3/7), positive control” value [9] was “apoptosis was increased”.

For “^89Zr-labeled p-isothiocyanato-benzyl-desferrioxamine [^89Zr-DBN]”, the “^89Zr-radioactivity incorporated in hydrophobic membrane protein fraction” value [10] was roughly 99%, the “Radioactivity concentrations of labeled cells achieved without a negative effect on cellular viability” value [11] was “up to 0.5 MBq/1×10^6 cells” and the cell labeling efficiency ([11]; 30 minutes labeling at 37° C., ~6×10^6 cells, ~6 MBq, cell-bound radioactivity after washes, depending on cell type) was 30-50%. For the same compound, the “efflux of ^89Zr-radioactivity from labeled cells” value [12] was “negligible efflux; also recorded: no efflux of radiolabel was observed”, the “viral labeling yield (radioactivity concentration)” value [13] was roughly 20 mCi/10^14 viral particles and the “Radioactivity concentration of labeled cells” value [14] was 0.47±0.10 MBq/10^6 cells. The “Radioactivity concentration of labeled cells” value [15] was 0.39±0.20 MBq/10^6 cells and the “Radioactivity concentration of labeled cells” value [16] was 0.50±0.10 MBq/10^6 cells.
